Like-named read-outs stand apart in the source and are kept apart here.
Tests used:
[1] = test system: PHA-induced IL-2 production in PBMCs; assay: PHA-induced IL-2 production in PBMCs from healthy male smokers (no IL-2/IL-4 added), ELISA; format: cell-based, human; conditions: for inhibition at 0.01 µM / inhibition at 10 µM / inhibition at 0.0001 µM: Homo sapiens, PBMC
Procedure: PBMCs were isolated from human blood buffy coats provided by a regional blood center. Random buffy coat cells from male donors were a by-product of blood processed for clinical use and no details (i.e., personal identification and background) were provided except for tobacco use. […] PBMCs were separated using a porous high density polyethylene barrier (HISTOPAQUE from GEHealthcare Bio-Sciences AB (US). After centrifugation of blood samples in each tube (35 minutes at 800×g at room temperature, or RT), PBMCs were collected and washed twice with Hank's buffered saline solution (HBSS). PBMCs were resuspended in RPMI-1640 medium containing 10% fetal calf serum (FCS) and 15 mM glutamine and cells were counted and plated.
(§1) PBMCs (2×10^6) were incubated with or without IL-2 (13 ng/ml) and IL-4 (6.5 ng/ml) for 48 hours in RPMI-1640 medium containing 10% FCS and 2 mM glutamine. […] IL-2 and IL-4 stimulated PBMCs were also plated at a concentration of 10^6 cells/ml in 96-well plates ready for PHA (15 μg/mL, 24 hours) stimulation of cytokine release and detection by ELISA.
Serial dilutions of standards and PBMCs' supernatants were measured by enzyme linked immunosorbent assay to determine IL-2 at baseline and its levels after 17HPC, P4 and MAP treatments. Optical density was measured at 450 nm and corrected with 550 nm. The concentration of TL-2 was calculated using the standard curve and taking into account the supernatant dilution used. Detection limit for IL-2 is 4.0 pg/ml.
Data are expressed as mean±SD. The efficacies of the drug treatments were analyzed by paired t-test. One-way analysis of variance was used to compare three or more matched groups and 95% CI was performed to present groups differences. All graphs indicate mean values of results or % inhibition of PHA-stimulated IL-2. IC50 values were calculated by using a sigmoidal model (BioDataFit). A p value <0.05 was considered statistically significant.
(§2) IL-2 levels were quantified using ELISA.
IL-2 levels were quantified using ELISA. IC50 values were calculated by using a sigmoidal model (BioDataFit).
as §2, §2, §2

[2] = test system: PHA-induced IL-2 release in IL-2 and IL-4 treated (steroid resistant) PBMCs; assay: IL-2/IL-4 induced steroid resistance model in PBMCs: dexamethasone inhibition of PHA-induced IL-2 release; format: cell-based, human; conditions: Dexamethasone 10^−10 M
Procedure: J Immunol 2009; 183; 164-171). […] Following PBMCs stimulation with mitogen phytohaemagglutinin (PHA), there is a strong correlation between cytokine secretion levels and steroid resistance as well as steroid sensitivity in vitro. Addition of IL-2, IL-4 and TNF-reduce steroid sensitivity.
as §1
IL-2/4 induced steroid resistance in PBMCs, a well-recognized study model, was used to evaluate potential modifiers of steroid resistance and sensitivity. PBMCs from healthy smokers were collected. Corticosteroid insensitivity or resistance was induced by adding IL-2 and IL-4 in peripheral blood mononuclear cells (PBMCs) from healthy male smokers (n=˜11). […] IL-2 levels were quantified using ELISA.
J Immunol 2009; 183; 164-171).
as §2

[3] = test system: mitogen-activated protein kinase; conditions: rat uterine smooth muscle; cited from earlier work
[4] = test system: patients with severe premenstrual exacerbations of asthma; conditions: intramuscular, added to regimen incl. corticosteroids; 3 cases; cited from earlier work
[5] = test system: females with severe asthma; conditions: sublingual; sixteen patients; cited from earlier work
[6] = read-out: % inhibition of PHA-induced IL-2 production
[7] = MPA 10^−5M + Dexamethasone 10E−8M
[8] = MPA 10^−8M + Dexamethasone 10E−8M
[9] = MPA 10^−8M + Dexamethasone 10E−11M
[10] = MPA 10^−10M + Dexamethasone 10E−8M
[11] = P4 10^−5M + Dexamethasone 10E−8M
[12] = P4 10^−8M + Dexamethasone 10E−8M
[13] = P4 10^−8M + Dexamethasone 10E−11M
[14] = P4 10^−10M + Dexamethasone 10E−8M

CC(=O)O[C@]1(C(C)=O)CC[C@H]2[C@@H]3C[C@H](C)C4=CC(=O)CC[C@]4(C)[C@H]3CC[C@@]21C [MPA, MEDROXYPROGESTERONE ACETATE]
inhibition at 0.01 µM [1]: 78%
inhibition at 10 µM [1]: 95%
inhibition at 0.0001 µM [1, 6]: 73%
inhibition at 0.0001 µM ([1]; read-out: IL-2 inhibition): ≥ 86%
% inhibition of PHA-induced IL-2 production [1, 7]: (98%)
mean IL-2 [1, 7]: 12.3 pg/mL
mean IL-2 ([1]; MPA 10^−5M, PHA, no Dexamethasone): 39.8 pg/mL
% inhibition of PHA-induced IL-2 production [1, 8]: 96%
mean IL-2 [1, 8]: 29.2 pg/mL
% inhibition of PHA-induced IL-2 production [1, 9]: (83%)
mean IL-2 [1, 9]: 129.1 pg/mL
mean IL-2 ([1]; MPA 10^−8M, PHA, no Dexamethasone): 166.9 pg/mL
% inhibition of PHA-induced IL-2 production [1, 10]: (94%)
mean IL-2 [1, 10]: 44.7 pg/mL
mean IL-2 ([1]; MPA 10^−10M, PHA, no Dexamethasone): 206.1 pg/mL
improvement in corticosteroid sensitivity, responding sub-group ([2]; FIG. 9): up to 58%
reduction (worsening) in corticosteroid sensitivity, other sub-group ([2]; FIG. 9): up to 88%

CC(=O)[C@H]1CC[C@H]2[C@@H]3CCC4=CC(=O)CC[C@]4(C)[C@H]3CC[C@]12C [P4, Progesterone]
inhibition at 0.01 µM [1]: 36%
inhibition at 10 µM [1]: 85%
inhibition at 0.0001 µM [1, 6]: 34%
inhibition at 0.0001 µM ([1]; read-out: IL-2 inhibition): ≥ 86%
% inhibition of PHA-induced IL-2 production [1, 11]: (89%)
mean IL-2 [1, 11]: 81.2 pg/mL
mean IL-2 ([1]; P4 10^−5M, PHA, no Dexamethasone): 113.8 pg/mL
% inhibition of PHA-induced IL-2 production [1, 12]: (88%)
mean IL-2 [1, 12]: 91.4 pg/mL
% inhibition of PHA-induced IL-2 production [1, 13]: (87%)
mean IL-2 [1, 13]: 100.8 pg/mL
mean IL-2 ([1]; P4 10^−8M, PHA, no Dexamethasone): 486.2 pg/mL
% inhibition of PHA-induced IL-2 production [1, 14]: (92%)
mean IL-2 [1, 14]: 59.6 pg/mL
mean IL-2 ([1]; P4 10^−10M, PHA, no Dexamethasone): 506.9 pg/mL
effect on MAPK tyrosine phosphorylation and membrane-associated MAPK activity [3]: increased MAPK tyrosine phosphorylation and membrane-associated MAPK activity
effect on premenstrual fall in peak flow rate [4]: eliminated the premenstrual dips in peak flow
patients with an increase in both FEV1 and FVC [5]: 50%
patients with an increase of 27% or greater in PEF [5]: 50%
patients with bronchodilator effect (greater than 12% increase) in either FEV1 or FVC [5]: 75%
subjects with more than 10% improvement in maximal Dexamethasone inhibition ([2]; FIGS. 7-8): 6 out of 8

estradiol-17 beta [estrogen]
effect on MAPK tyrosine phosphorylation and membrane-associated MAPK activity [3]: increased MAPK tyrosine phosphorylation and membrane-associated MAPK activity
